Earlier results, collected in patent US20070071679A1, “Methylamine risks and treatment of hyperactivity, depression, and alcoholism with epinephrine-N-quinolines” (priority 2005, published 2007).
Read-outs that look alike come from different tables or passages of the source. Values belong to the molecule of their own block, whether it stands above or below them.

Columns and labels:
[1] = tested on: sleep-waking cycles of cats; settings: for restoration of relative proportions of stages of sleep-waking cycles towards baseline: cats treated with monoamine reuptake inhibitor; for paradoxical (REM) sleep / active sleep: dose not given
active sleep in kittens [2] = settings: 6-OHDA pretreated, two weeks and one month of postnatal age
[3] = tested on: active sleep in a rat model; settings: during ontogenetic development
[4] = tested on: regional cerebral blood flow; settings: human beings
[5] = tested on: paradoxical (REM) sleep in rats; settings: for percentage of paradoxical (REM) sleep: rats aged 34 months, between 4 and 12 hours after i.p. administration
active sleep in kittens [6] = tested on: active sleep in kittens
cerebral blood flow = settings: cats
[7] = tested on: limbic forebrain and cerebellum of rats
human patients = settings: antihypertensive treatment
[8] = tested on: prepubertal boys and patients with narcolepsy or symptomatic hypersomnia
[9] = cats, 0.5 mg/kg of body weight intraperitoneally

Molecule: CNCCCC1(c2ccccc2)CC(C)(C)c2ccccc21 (centres unmarked) [Prindamine]
REM sleep latency ([1]; cats, i.p. administration): lengthening
proportion of time cats are in REM sleep ([1]; during 16 hours after i.p. administration): approximately 7%

Molecule: Clc1cccc(Cl)c1N=C1NCCN1 [clonidine]
paradoxical sleep (REM sleep) ([1]; mature cats, 0.01 mg/kg i.p.): suppresses paradoxical sleep
active sleep (active sleep in kittens [2]; 0.01 mg/kg i.p.): suppresses active sleep

Molecule: CC(C)NCC(O)c1ccc(O)c(O)c1 (centres unmarked) [isoproterenol]
active sleep [3]: increase active sleep

Molecule: Cc1ccc(N(CC2=NCCN2)c2cccc(O)c2)cc1 [phentolamine]
regional cerebral blood flow [4]: does not affect
restoration of relative proportions of stages of sleep-waking cycles towards baseline [1]: restores significantly
paradoxical (REM) sleep / active sleep ([1]; mature cats): increase active sleep
duration of the episodes cats were in REM sleep (REM sleep of cats; REM sleep deprivation plus 20 mg/kg i.p. at the beginning of recovery, n.s.): 6.5 ± 1.9 min
number of REM episodes (REM sleep of cats; given at the beginning of recovery after REM sleep deprivation): did not affect
frequency of REM sleep episodes in sleep-waking cycles ([5]; rats): increases the frequency of REM sleep episodes
percentage of paradoxical (REM) sleep [5]: increase
active sleep (active sleep in kittens [6]): increase active sleep
cerebral blood flow (cerebral blood flow): doubled

Molecule: CC(C)NCC(O)COc1cccc2[nH]ccc12 (centres unmarked) [pindolol]
amount of REM sleep ([1]; cats, 0.1 mg/kg of body weight intraperitoneally): not
amount of REM sleep [1, 9]: increases the amount of REM sleep
amount of drowsy wakefulness [1, 9]: increases the amount of drowsy wakefulness

Molecule: COc1cc2nc(N3CCN(C(=O)c4ccco4)CC3)nc(N)c2cc1OC [prazosin]
restoration of relative proportions of stages of sleep-waking cycles towards baseline [1]: not
paradoxical sleep ([1]; mature cats, 0.5 mg/kg i.p.): increases paradoxical sleep
paradoxical (REM) sleep / active sleep ([1]; mature cats): increases paradoxical (REM) sleep
active sleep (active sleep in kittens [2]; 0.5 mg/kg i.p.): does not affect active sleep
percentage of paradoxical (REM) sleep [5]: increase

Molecule: CC(C)NC[C@H](O)COc1ccc(O)cc1 [prenalterol]
paradoxical (REM) sleep / active sleep ([1]; mature cats): increases the amount of paradoxical (REM) sleep

Molecule: CC(C)NCC(O)COc1cccc2ccccc12 (centres unmarked) [propranolol]
restoration of relative proportions of stages of sleep-waking cycles towards baseline [1]: not
concentrations of serotonin and 5-HIAA ([7]; after exposure during early development): lack of effect
content of norepinephrine in the limbic forebrain and cerebellum ([7]; at the age of five months after early postnatal exposure): increased content of norepinephrine

share of treated patients with clinical depression (human patients): one fourth
Molecule: COC(=O)[C@H]1[C@H]2C[C@@H]3c4[nH]c5cc(OC)ccc5c4CCN3C[C@H]2C[C@@H](OC(=O)c2cc(OC)c(OC)c(OC)c2)[C@@H]1OC [reserpine]

Molecule: COC(=O)[C@@H]1[C@H]2C[C@H]3c4[nH]c5ccccc5c4CCN3C[C@@H]2CC[C@@H]1O [yohimbine]
restoration of relative proportions of stages of sleep-waking cycles towards baseline [1]: not

Molecule: arginine-vasotocin
rapid eye movement sleep [8]: induce rapid eye movement sleep
